Values of other authors, collected in US8394592B2, “Methods for assessing cancer susceptibility to carcinogens in tobacco products” (The Board of Regents of the University of Texas System, priority 2006, dated 2013).

Experiments:
rats = conditions: cited from earlier work
Swiss mice = conditions: micronucleus test in Swiss mice; cited from earlier work

In the case of `CN(CCCC(=O)c1cccnc1)N=O` [NNK, 4-(methylnitrosamino)-1-(3-pyridyl)-1-butanone], the “lowest dose shown to induce lung tumors” value (rats) is listed as 1.8 mg and the mutagenicity (Swiss mice) is listed as “potent mutagen”.
